Source: patent US20060263761A1, “Methods and compositions for beryllium-induced Disease” (priority 2005, published 2006)

Tests used:
Assay type in all cases: cell-based, human
CD4+ T cells = test: Intracellular cytokine staining (IFN-γ, IL-2) by flow cytometry
Experimental: . Cells were stained with mAbs directed against CD4 and CD8 (BD Biosciences Pharmingen) followed by fixation, permeabilization, and staining with mAbs directed against IFN-γ and/or IL-2 (Caltag, Burlingame, Calif.). The lymphocyte population was identified using forward and 90° light scatter patterns, and fluorescence intensity was analyzed using a FACScaliber cytometer (Becton Dickinson) as previously described but any means known in the art may be used to identify this population.
For example, the ratio of IFN-γ- to IL-2-secreting cells determined by ELISPOT analysis was 2.7 (median; range, 0.5-167) for CBD patients (n=33) and 1.8 (median; range, 0.5-6.9) for BeS patients (n=18) (P=0.07). To further address this issue, intracellular cytokine staining was performed on blood from 11 of the 33 CBD subjects who had large enough populations (>0.04%) of circulating beryllium-specific CD4+ T cells to allow for evaluation of Th1-type cytokine expression after beryllium exposure in culture. […] IFN-γ and IL-2 expression in CD4− T cells was equal to background levels. In the peripheral blood, the beryllium-specific CD4+ T cells appeared equally divided into two groups: T cells capable of expressing both IFN-γ and IL 2 and another expressing only IFN-γ (FIG. 4B). Similar to T cells in the lung (12), almost no cells were detected that produced IL-2 in the absence of IFN-γ expression. In these eleven CBD patients, the median percentage of IFN-γ-expressing CD4+ T cells was 0.29% (range, 0.1%-1.1%) compared to 0.07% for IL-2 (0%-0.49%; P=0.007) (FIG. 4C).

[1] = tested on: PBMCs (IFN-γ-producing cells); test: IFN-γ ELISPOT assay on PBMCs after BeSO4 exposure; conditions: for ratio of IFN-γ- to IL-2-secreting cells (median): ELISPOT; for subjects demonstrating beryllium-induced IFN-γ production: threshold >1.4 SFU
Experimental: (§1) In one exemplary method, ELISPOT assays were performed using plates (ImmunoSpot M200, BD Biosciences Pharmingen) that were coated with, IFN-γ or IL-2 capture mAb (BD Biosciences Pharmingen) overnight and blocked with Blocking Solution containing RPMI 1640 supplemented with 10% heat-inactivated fetal bovine serum (Tissue Culture Biologicals, Tulare Calif.), 20 mM HEPES, 1 mM sodium pyruvate, 100 U/ml penicillin, 100 μg/ml streptomycin, and 2 mM L-glutamine (e.g. all from Life Technologies, Gaithersburg Md.) for 2 h at room temperature. Freshly isolated PBMCs (5×10^5 cells/well) were added to wells and incubated overnight at 37° C. in a humidified 5% CO2 atmosphere with medium, PHA, or BeSO4. ELISpot assays were performed in triplicate. The wells were washed, and IFN-γ or IL-2 detection mAbs (BD Biosciences Pharmingen) were added, and the proteins were visualized by successive additions of avidin-horseradish peroxidase and 3-amino-9-ethylcarbazole (AEC) substrate reagent (BD Biosciences Pharmingen). The ELISpot plates were analyzed using a for example a CTL Immunospot Analyzer (Cellular Technology Ltd., Cleveland, Ohio), and results are reported as mean±SD spot-forming units (SFU) per well minus background SFU.
In one exemplary method ELISPOT assays were performed on fresh PBMCs from 12 healthy control, 18 BeS and 33 CBD subjects (Table 1).

PBMCs = test: Lymphocyte proliferation assay ([3H]thymidine, BeLPT)
Experimental: In one exemplary method, proliferation assays were performed using PBMCs (2.5×10^5 cells/well) cultured for 4-6 days in complete culture media containing RPMI 1640 supplemented with 10% heat-inactivated human serum (Gemini Bio-Products, Woodland Calif.) with the following stimulants: medium, 2.5 μg/ml phytohemagglutinin (PHA), 1×10^−4 M or 1×10^−5 M BeSO4 (example of one beryllium composition). The wells were pulsed with 1 μCi of [^3H] thymidine for 18 hours, and incorporation of radioactivity was determined by β-emission spectroscopy. Proliferation assays were performed in quadruplicate. The data are presented as stimulation index (SI) with a positive response defined as […]. Any other means known in the art for assessing proliferation of cells may be used.
In another exemplary method, PBMCs from healthy control, BeS, and CBD subjects described above were examined for beryllium-induced proliferation at the same time as the ELISPOT assays were performed. […] The median SI for PBMCs from BeS and CBD patients exposed to 1×10^−4 M BeSO4 was 2.8 (range, 0.5-42) and 3.5 (0.6-85) (P=0.49), respectively. The findings were similar when expressed as ΔCPM, with the median ΔCPM from BeS and CBD patients exposed to 1×10^−4 M BeSO4 being 917 (range, 0-36,355) and 1514 (range, 0-20,884), respectively (P=0.85). […] In one exemplary method, ELISPOT analysis for IFN-γ was able to detect the presence of beryllium-specific T cells in blood. […] In 6 BeS and 7 CBD subjects, the ELISPOT assay detected IFN-γ- and/or IL-2-secreting cells in response to beryllium exposure in culture while no beryllium-induced proliferation was detected at the time of the study. […] For example, in CBD patients, the median number of beryllium-induced, IFN-γ-expressing cells was 83 SFU (range, 0-645) in subjects with and 48 SFU (range, 10-112; P=0.3) in subjects without beryllium-induced proliferation. Beryllium-induced proliferation occurred in the absence of detectable cytokine secretion in only 2 CBD patients, while both ELISPOT analysis and proliferation assay were negative in 2 BeS and 3 CBD patients.

[2] = tested on: PBMCs (IL-2-producing cells); test: IL-2 ELISPOT assay on PBMCs after BeSO4 exposure
Experimental: as §1

[3] = representative CBD subject, FIG. 4A, following beryllium exposure

## O=S(=O)([O-])[O-].[Be+2] [BeSO4, Beryllium sulfate]
CD4+ T cells; eleven CBD patients
  median percentage of IFN-γ-expressing CD4+ T cells: 0.29%
  median percentage of IL-2-expressing CD4+ T cells: 0.07%
CD4+ T cells; [3]
  CD4+ T cells expressing IFN-γ: 1.1%
  CD4+ T cells expressing IL-2: 0.5%
[1]; BeS patients (n=18)
  ratio of IFN-γ- to IL-2-secreting cells (median): 1.8
[1]; BeS subjects (n=18), 1×10^−4 M BeSO4
  median number of IFN-γ producing cells in blood: 6.3 SFU
[1]; BeS subjects, 13 of 18, 1×10^−4 M BeSO4
  subjects demonstrating beryllium-induced IFN-γ production: 72%
[1]; CBD and BeS subjects, 41 of 51
  patients with a positive ELISPOT assay: 80%
[1]; CBD patients (n=33), 1×10^−4 M BeSO4
  median number of IFN-γ producing cells in blood: 52 SFU
[1]; CBD patients (n=33)
  ratio of IFN-γ- to IL-2-secreting cells (median): 2.7
[1]; CBD patients with beryllium-induced proliferation
  median number of beryllium-induced, IFN-γ-expressing cells: 83 SFU
[1]; CBD patients without beryllium-induced proliferation
  median number of beryllium-induced, IFN-γ-expressing cells: 48 SFU
[1]; CBD subjects, 28 of 33, 1×10^−4 M BeSO4
  subjects demonstrating beryllium-induced IFN-γ production: 85%
[1]; healthy control subject, 1×10^−4 M BeSO4
  IFN-γ SFU (mean±SD) of the one healthy control with a positive response: 2.0±2.1 SFU per 5×10^5 cells
[1]; normal control subjects (n=12), 1×10^−4 M BeSO4
  median number of IFN-γ producing cells in blood: 0.4 SFU
[1]; treated CBD subjects, 1×10^−4 M BeSO4
  median number of IFN-γ producing cells in blood: 117
[1]; untreated CBD subjects, 1×10^−4 M BeSO4
  median number of IFN-γ producing cells in blood: 34
PBMCs; BeS patients, 10 of 18, 1×10^−4 M BeSO4
  patients with a positive proliferative response: 55%
PBMCs; BeS patients, 1×10^−4 M BeSO4
  median SI (stimulation index): 2.8
  median ΔCPM: 917
PBMCs; CBD and BeS subjects, 33 of 51
  subjects with a positive beryllium-induced proliferative response (BeLPT): 65%
PBMCs; CBD patients, 23 of 33, 1×10^−4 M BeSO4
  patients with a positive proliferative response: 70%
PBMCs; CBD patients, 1×10^−4 M BeSO4
  median SI (stimulation index): 3.5
  median ΔCPM: 1514
PBMCs; control subjects, 1×10^−4 M BeSO4
  median SI (stimulation index): 0.5
PBMCs; control subjects, 1×10^−5 M BeSO4
  median SI (stimulation index): 0.7
[2]; BeS subjects
  median number of IL-2-producing cells: 2.8 SFU
[2]; CBD patients
  median number of IL-2-producing cells: 16 SFU/5×10^5 cells
[2]; normal control subjects
  median number of IL-2-producing cells: 0 SFU
